Test results as given in ChEMBL document CHEMBL1146245, “Antitumor agents. 258. Syntheses and evaluation of dietary antioxidant--taxoid conjugates as novel cytotoxic agents” (2007).
Calls of active or inactive are those of the source.

Legend:
Format in all cases: functional
1A9 = assay: Cytotoxicity against human 1A9 cells by sulforhodamine B assay
KB = assay: Cytotoxicity against human KB cells by sulforhodamine B assay
A-431 = assay: Cytotoxicity against human A431 cells
A549 = assay: Cytotoxicity against human A549 cells
[1] = Cytotoxicity against MDR human KB-VIN cells expressing P-glycoprotein
HCT-8 = assay: Cytotoxicity against human HCT8 cells

Measured: Activity

CCN(CC)CCC(=O)O[C@H]1C[C@H]2OC[C@@]2(OC(C)=O)[C@H]2[C@H](OCc3ccccc3)[C@]3(O)C[C@H](OC(=O)[C@H](OC(=O)CCC(=O)Oc4c(C)c(C)c5c(c4C)OC(C)(CCC[C@@H](C)CCC[C@@H](C)CCCC(C)C)CC5)[C@@H](NCc4ccccc4)c4ccccc4)C(C)=C([C@@H](OC(C)=O)C(=O)[C@]12C)C3(C)C (stereo in doubt; 27a)
inactive: all assays above
